Key:
[1] = test system: hypercholesterolemic subjects; assay: EASE study post hoc analysis: plasma lipids, apolipoproteins and hs-CRP, ezetimibe add-on to ongoing statin therapy; type: in vivo, human; details: for Triglyceride / Apo A1 / Apo B / HDL-C / Non-HDL-C / Total C / Total C/HDL-C ratio / LDL-C / hs-CRP: baseline during ongoing statin therapy, by statin type; for Apo A1 / Apo B / HDL-C / Non-HDL-C / Total C / Total C/HDL-C ratio / LDL-C: mean ± SD; for LDL-C: Friedewald formula; for hs-CRP: median ± robust SD; for reductions from baseline in LDL-C / mean percent LDL-C reduction / percent LDL-C reduction from baseline: 6 weeks; for reductions from baseline in LDL-C: unadjusted data; for mean percent LDL-C reduction / percent change from baseline in LDL-C / percent change from baseline in non-HDL-C / percent change from baseline in total C/HDL-C: ezetimibe add-on
Description: (§1) Briefly, hypercholesterolemic subjects (n=874) on statins received ezetimibe 10 mg/day. Plasma lipids, lathosterol, and β-sitosterol were measured at baseline and on treatment.
(§2) This study included subjects from the ezetimibe add-on to statin arm of the EASE study (http://clinicaltrials.gov identifier NCT00092586; Study Protocol 040). Details of the study design and outcomes have been published previously. (See Pearson T A, Denke M A, McBride P E, Battisti W P, Brady W E, Palmisano J. A community-based, randomized trial of ezetimibe added to statin therapy to attain NCEP ATP III goals for LDL cholesterol in hypercholesterolemic patients: the ezetimibe add-on to statin for effectiveness (EASE) trial. Mayo Clin Proc 2005; 80:587-95; Pearson T A, Denke M A, McBride P E, et al. Effectiveness of ezetimibe added to ongoing statin therapy in modifying lipid profiles and low-density lipoprotein cholesterol goal attainment in patients of different races and ethnicities: a substudy of the Ezetimibe add-on to statin for effectiveness trial. Mayo Clin Proc 2006; 81:1177-85.)
(§3) Briefly, the EASE study was a multicenter, randomized, double-blind, placebo-controlled, 6-week parallel-group study. Participants with hypercholesterolemia were recruited from community based practices across the United States. Inclusion criteria were: 1) age ≧18 years, 2) on a stable, approved dose of any statin, 3) following a cholesterol-lowering diet for ≧6 weeks before study entry, and 4) LDL-C levels above risk-based NCEP ATP III targets. Subjects receiving lipid-altering agents other than statins during the 6 weeks before screening were excluded. Patients were randomized to receive ezetimibe 10 mg/day or placebo plus their current statin therapy and dose for 6 weeks. Statin type and dose were maintained throughout the study. The research protocol was approved by the investigational review boards at each site, and all participants provided written informed consent prior to study start.
(§4) For this current post hoc analysis, we assessed subjects who were randomized into the ezetimibe 10 mg plus statin arm of the EASE study (n=1940). Of the 1124 subjects with samples available for measurement, only those who had complete sterol and lipid data at baseline and at the end of the 6-week study were included in this analysis (n=874). The mean age and other baseline characteristics of those included and excluded from this analysis were similar. Comparison of subjects was based on statin type or potency (low, medium, high) subgroups. The low potency statin group (predicted LDL-C reduction of ˜20-30%) included subjects receiving simvastatin ≦10 mg/day, lovastatin ≦20 mg/day, pravastatin ≦20 mg/day, and fluvastatin ≦40 mg/day. The medium potency statin group (predicted LDL-C reduction of ˜31-45%) included subjects receiving simvastatin >10 to ≦40 mg/day, atorvastatin ≦20 mg/day, lovastatin >20 to 80 mg/day, pravastatin >20 to 80 mg/day, and fluvastatin >40 to 80 mg/day.
(§5) Plasma total cholesterol (total C), high-density lipoprotein cholesterol (HDL-C), and triglycerides (TG) were analyzed using standardized methods at the central laboratory of the trial (PPD Global Central Labs, Highland Heights, Kentucky, USA). LDL-C was calculated using the Friedewald formula. (See Friedewald W T, Levy R I, Fredrickson D S. Estimation of the concentration of low-density lipoprotein cholesterol in plasma, without use of the preparative ultracentrifuge. Clin Chem 1972; 18:499-502.) Non-HDL-C was calculated by subtracting HDL-C from total C. Apolipoprotein (Apo) A-I, Apo B, and high-sensitivity C-reactive protein (hs-CRP) were measured by automated immunoassays at the central laboratory. Within and between coefficients for all assays were <10%. Plasma lathosterol and β-sitosterol were quantified by gas chromatography mass spectrometry after lipid extraction as previously described in Sudhop T, Lutjohann D, Kodal A, et al. Inhibition of intestinal cholesterol absorption by ezetimibe in humans. […]

[2] = test system: patients with coronary heart disease; details: comparing sterol/cholesterol ratios; previous studies; cited from earlier work
[3] = test system: hypercholesterolemic subjects; assay: EASE study post hoc analysis: plasma lathosterol and β-sitosterol by gas chromatography mass spectrometry; type: in vivo, human; details: for B-sitosterol / B-sitosterol/Lathosterol / B-sitosterol/Total C / Lathosterol / Lathosterol/Total C: baseline during ongoing statin therapy, by statin type, mean ± SD
Description: as §1, §2, §3, §4, §5

[4] = literature; cited from earlier work
[5] = subjects with baseline sitosterol/lathosterol above the median
[6] = subjects with baseline sitosterol/lathosterol ≦ the median
[7] = overall study population, ezetimibe add-on to statin, 6 weeks

Question: Which Triglyceride [1] does the source give for `CC(C)c1c(C(=O)Nc2ccccc2)c(-c2ccccc2)c(-c2ccc(F)cc2)n1CC[C@@H](O)C[C@@H](O)CC(=O)O` [Atorvastatin, atorvastatin] here?
Answer: The Triglyceride was 149.0 ± 85.6 mg/dL.

Question: And the “Apo A1” value [1]?
Answer: The value was 156.3 ± 26.1 mg/dL.

Question: And the “Apo B” value [1]?
Answer: The value was 129.2 ± 25.4 mg/dL.

Question: What about the HDL-C [1] of the same molecule?
Answer: The HDL-C was 47.8 ± 10.7 mg/dL.

Question: And the Non-HDL-C [1]?
Answer: The Non-HDL-C was 162.0 ± 33.6 mg/dL.

Question: What about the “Total C” value [1] of the same molecule?
Answer: Its value is 209.7 ± 35.4 mg/dL.

Question: What about the “Total C/HDL-C ratio” value [1] of the same molecule?
Answer: The value was 4.55 ± 1.05.

Question: What about the LDL-C [1] of the same molecule?
Answer: Its LDL-C is 130.0 ± 30.9 mg/dL.

Question: What about the hs-CRP [1] of the same molecule?
Answer: The hs-CRP was 2.40 ± 3.53 mg/L.

Question: What about the “increase of plant sterols” value [2] of the same molecule?
Answer: The value was 82%.

Question: What about the “reduction of precursor sterols” value [2] of the same molecule?
Answer: The value was −50%.

Question: And the B-sitosterol [3]?
Answer: Its B-sitosterol is 5.40 ± 2.93 µmol/L.

Question: What about the B-sitosterol/Lathosterol [3] of the same molecule?
Answer: Its B-sitosterol/Lathosterol is 4.22 ± 4.39.

Question: And the “B-sitosterol/Total C” value [3]?
Answer: Its value is 1.01 ± 0.57 μmol/mmol.

Question: And the Lathosterol [3]?
Answer: Its Lathosterol is 2.20 ± 1.70 µmol/L.

Question: And the “Lathosterol/Total C” value [3]?
Answer: The value was 0.39 ± 0.26 μmol/mmol.

Question: With `CC[C@H](C)C(=O)O[C@H]1C[C@H](O)C=C2C=C[C@H](C)[C@H](CC[C@@H](O)C[C@@H](O)CC(=O)O)[C@H]21` [Pravastatin, pravastatin] as the molecule, how does the Triglyceride [1] read?
Answer: Its Triglyceride is 155.0 ± 80.0 mg/dL.

Question: What about the “Apo A1” value [1] of the same molecule?
Answer: Its value is 160.5 ± 28.2 mg/dL.

Question: What about the “Apo B” value [1] of the same molecule?
Answer: Its value is 131.3 ± 26.0 mg/dL.

Question: And the HDL-C [1]?
Answer: Its HDL-C is 48.6 ± 12.0 mg/dL.

Question: What about the Non-HDL-C [1] of the same molecule?
Answer: Its Non-HDL-C is 166.9 ± 34.5 mg/dL.

Question: What about the “Total C” value [1] of the same molecule?
Answer: The value was 215.5 ± 34.9 mg/dL.

Question: What about the “Total C/HDL-C ratio” value [1] of the same molecule?
Answer: Its value is 4.65 ± 1.25.

Question: What about the LDL-C [1] of the same molecule?
Answer: The LDL-C was 133.1 ± 28.3 mg/dL.

Question: And the hs-CRP [1]?
Answer: Its hs-CRP is 2.70 ± 4.09 mg/L.

Question: And the B-sitosterol [3]?
Answer: The B-sitosterol was 4.72 ± 2.51 µmol/L.

Question: What about the B-sitosterol/Lathosterol [3] of the same molecule?
Answer: The B-sitosterol/Lathosterol was 2.11 ± 2.10.

Question: What about the “B-sitosterol/Total C” value [3] of the same molecule?
Answer: Its value is 0.86 ± 0.48 μmol/mmol.

Question: And the Lathosterol [3]?
Answer: Its Lathosterol is 3.08 ± 1.69 µmol/L.

Question: What about the “Lathosterol/Total C” value [3] of the same molecule?
Answer: The value was 0.55 ± 0.26 μmol/mmol.

Question: With `CCC(C)(C)C(=O)O[C@H]1C[C@@H](C)C=C2C=C[C@H](C)[C@H](CC[C@@H]3C[C@@H](O)CC(=O)O3)[C@H]21` [Simvastatin, simvastatin] as the molecule, how does the Triglyceride [1] read?
Answer: Its Triglyceride is 149.0 ± 88.4 mg/dL.

Question: What about the “Apo A1” value [1] of the same molecule?
Answer: Its value is 157.7 ± 26.3 mg/dL.

Question: What about the “Apo B” value [1] of the same molecule?
Answer: The value was 125.8 ± 23.2 mg/dL.

Question: What about the HDL-C [1] of the same molecule?
Answer: Its HDL-C is 48.2 ± 11.8 mg/dL.

Question: And the Non-HDL-C [1]?
Answer: The Non-HDL-C was 157.4 ± 30.2 mg/dL.

Question: And the “Total C” value [1]?
Answer: The value was 205.5 ± 31.4 mg/dL.

Question: What about the “Total C/HDL-C ratio” value [1] of the same molecule?
Answer: The value was 4.46 ± 1.10.

Question: And the LDL-C [1]?
Answer: The LDL-C was 124.3 ± 26.1 mg/dL.

Question: And the hs-CRP [1]?
Answer: Its hs-CRP is 2.50 ± 3.81 mg/L.

Question: What about the B-sitosterol [3] of the same molecule?
Answer: Its B-sitosterol is 4.33 ± 2.17 µmol/L.

Question: And the “B-sitosterol/Total C” value [3]?
Answer: Its value is 0.82 ± 0.40 μmol/mmol.

Question: What about the Lathosterol [3] of the same molecule?
Answer: The Lathosterol was 2.47 ± 1.68 µmol/L.

Question: And the “Lathosterol/Total C” value [3]?
Answer: Its value is 0.46 ± 0.28 μmol/mmol.

Question: Which “reduces LDL-C levels by” value [4] does the source give for `O=C1[C@H](CC[C@H](O)c2ccc(F)cc2)[C@@H](c2ccc(O)cc2)N1c1ccc(F)cc1` [ezetimibe] here?
Answer: The value was 15-20%.

Question: And the “LDL-C lowered by” value ([1]; addition of ezetimibe to any statin)?
Answer: The value was 23-26%.

Question: What about the “reductions from baseline in LDL-C” value ([1]; ezetimibe 10 mg/day added to ongoing high potency statin) of the same molecule?
Answer: Its value is −29.1%.

Question: What about the “reductions from baseline in LDL-C” value ([1]; ezetimibe 10 mg/day added to ongoing low potency statin) of the same molecule?
Answer: Its value is −22.7%.

Question: And the “reductions from baseline in LDL-C” value ([1]; ezetimibe 10 mg/day added to ongoing medium potency statin)?
Answer: Its value is −25.0%.

Question: What about the “mean percent LDL-C reduction” value ([1]; high potency statin group) of the same molecule?
Answer: The value was 29.1%.

Question: And the “mean percent LDL-C reduction” value ([1]; low potency statin group)?
Answer: The value was 22.7%.

Question: What about the “mean percent LDL-C reduction” value ([1]; medium potency statin group) of the same molecule?
Answer: Its value is 25.0%.

Question: And the “percent change from baseline in LDL-C” value [1, 5]?
Answer: Its value is −26.7%.

Question: And the “percent change from baseline in non-HDL-C” value [1, 5]?
Answer: The value was −24.2%.

Question: And the “percent change from baseline in total C/HDL-C” value [1, 5]?
Answer: The value was −19.0%.

Question: And the “percent change from baseline in LDL-C” value [1, 6]?
Answer: Its value is −24.1%.

Question: And the “percent change from baseline in non-HDL-C” value [1, 6]?
Answer: Its value is −21.6%.

Question: What about the “percent change from baseline in total C/HDL-C” value [1, 6] of the same molecule?
Answer: Its value is −17.0%.

Question: What about the “percent LDL-C reduction from baseline” value ([1]; ezetimibe combination with ongoing atorvastatin) of the same molecule?
Answer: Its value is 26.4%.

Question: And the “percent LDL-C reduction from baseline” value ([1]; ezetimibe combination with ongoing lovastatin or fluvastatin)?
Answer: The value was 24.1%.

Question: What about the “percent LDL-C reduction from baseline” value ([1]; ezetimibe combination with ongoing pravastatin) of the same molecule?
Answer: The value was 23.1%.

Question: What about the “percent LDL-C reduction from baseline” value ([1]; ezetimibe combination with ongoing simvastatin) of the same molecule?
Answer: Its value is 26.4%.

Question: What about the “mean lathosterol levels increased by” value [3, 7] of the same molecule?
Answer: The value was 52%.

Question: What about the “mean lathosterol/cholesterol ratio increased by” value [3, 7] of the same molecule?
Answer: The value was 83.8%.

Question: And the “mean β-sitosterol levels decreased by” value [3, 7]?
Answer: The value was 47.4%.

Question: And the “mean β-sitosterol/cholesterol ratio decreased by” value [3, 7]?
Answer: The value was 36.3%.

Question: And the “overall percent change in the mean β-sitosterol/lathosterol ratio” value [3, 7]?
Answer: The value was −52.4%.
